Experimental data as given in patent US20140038920A1, “TFEB PHOSPHORYLATION INHIBITORS AND USES THEREOF” (FONDAZIONE TELETHON, priority 2011, published 2014).

The compounds below were run on TFEB (assay: High content TFEB-GFP nuclear translocation assay). Settings: Homo sapiens; mobilization of cytosolic TFEB to the nucleus; TFEB-GFP HeLa cells, 3 h at 37° C. in RPMI, ten concentrations 50 μM to 2.54 nM, 4 runs; read-out: Average EC50.
Assay type: cell-based
Description: Immunoblotting of protein extracts isolated from HeLa cells treated overnight, as indicated. Membranes were probed with antibodies for p-T202/Y204-ERK1/2, ERK1/2, p-T389-S6K, and S6K to measure ERK and mTORC1 activities. […] FLAG immunoblotting of cytosolic and nuclear fractions isolated from TFEB-3×FLAG HeLa cells cultured in amino acid-free media and subsequently stimulated as indicated for at least 3 h. Correct subcellular fractionation was verified with H3 and tubulin antibodies. […] After 3 h at 37° C. in RPMI medium containing one of each of the compounds, the cells were washed, fixed, and stained with DAPI and photographed by using confocal automated microscopy (Opera high content system, Perkin Elmer). […] Scale bars represent 30 μm. […] The EC50 for each compound was calculated using Prism software (see Materials and Methods for details). […] Antibody used were p-T389-S6K, S6K and FLAG. […] HeLa cells stably expressing Flag-3×TFEB were infected with lentiviruses encoding a Short hairpin (Sh-) RNA targeting luciferase (control) or RagC and RagD mRNAs. […] TFEB localization was detected with a FLAG antibody, whereas tubulin and H3 were used as controls for the cytosolic and nuclear fraction, respectively; levels of S6K phosphorylation were used to test RagC and RagD knockdown efficiency.
After 3 hours at 37° C. in RPMI medium cells were washed, fixed, and stained with DAPI. For the acquisition of the images, ten pictures per each well of the 384-well plate were taken by using confocal automated microscopy (Opera high content system, Perkin Elmer). A dedicated script was developed to perform the analysis of TFEB localization on the different images (Acapella software, Perkin Elmer). The script calculates the ratio value resulting from the average intensity of nuclear TFEB-GFP fluorescence divided by the average of the cytosolic intensity of TFEB-GFP fluorescence. The results were normalized using negative (RPMI medium) and positive (HBSS starvation) control samples in the same plate. The data are represented by the percentage of nuclear translocation at the different concentrations of each compound using Prism software (GraphPad software). The EC50 for each compound was calculated using non-linear regression fitting (Prism software).
In order to find additional small molecules able to induce the translocation of TFEB from the cytosol to the nucleus, the applicants developed a cell-based high content assay using stable HeLa cells overexpressing TFEB fused to the green fluorescent protein (TFEB-GFP). In the assay imaging of treated cells is acquired by an automated confocal microscope (OPERA system) and the analysis of those images with Acapella image software calculates the ratio of the average of fluorescence intensity of TFEB-GFP between the cytosol and nucleus of the cell (see Materials and methods for details). […] They tested ten concentrations for each inhibitor.

With `NC1(c2ccc(-c3nc4ccn5c(=O)[nH]nc5c4cc3-c3ccccc3)cc2)CCC1` [MK-2206] as the compound, how does the EC50 read?
Its EC50 is 7 to 15 µM.

How did the EC50 turn out when `CN1CCN(CCOc2cc(OC3CCOCC3)c3c(Nc4c(Cl)ccc5c4OCO5)ncnc3c2)CC1` [AZD0530 (Saracatinib), Saracatinib] was run?
The EC50 was 7 to 15 µM.

For `COc1ccc(-c2ccc3c(N4CCOCC4)nc(N4C[C@@H](C)O[C@@H](C)C4)nc3n2)cc1CO` [KU0063794], which EC50 is on record?
Its EC50 is less than 7 µM.

For `O=C(NOC[C@H](O)CO)c1ccc(F)c(F)c1Nc1ccc(I)cc1F` [PD0325901], which EC50 is on record?
The EC50 was greater than 15 µM.

`CCN(CC)CCNC(=O)c1c(C)[nH]c(/C=C2\C(=O)Nc3ccc(F)cc32)c1C` [Sunitinib Malate] was tested. Which EC50 did it give?
The EC50 was less than 7 µM.

With `CNC(=O)c1ccc2c(c1)NC(=O)/C2=C(\Nc1cccc(CN(C)C)c1)c1ccccc1` [BIX 02188] as the compound, how does the EC50 read?
The EC50 was greater than 15 µM.

Which EC50 does the source give for `COc1cc2c(Nc3ccc(Br)cc3F)ncnc2cc1OCC1CCN(C)CC1` [Vandetanib] here?
Its EC50 is less than 7 µM.

How did the EC50 turn out when `Cc1c[nH]c(-c2cnc(NCCNc3ccc(C#N)cn3)nc2-c2ccc(Cl)cc2Cl)n1` [CHIR99021] was run?
The EC50 was less than 7 µM.

For `Cc1cc(Nc2cc(CN3CCOCC3)c3nc(C)c(Cc4ccc(Cl)cc4F)n3n2)[nH]n1` [LY2784544], which EC50 is on record?
Its EC50 is less than 7 µM.

For `CN(C)Cc1cccc(N/C(=C2\C(=O)Nc3cc(C(=O)N(C)C)ccc32)c2ccccc2)c1` [BIX02189], which EC50 is on record?
The EC50 was 7 to 15 µM.

With `Cc1ccc(C(=O)Nc2ccc(CN3CCN(C)CC3)c(C(F)(F)F)c2)cc1C#Cc1cnc2cccnn12` [AP24534] as the compound, how does the EC50 read?
The EC50 was less than 7 µM.

With `Cn1c(=O)n(-c2ccc(C(C)(C)C#N)cc2)c2c3cc(-c4cnc5ccccc5c4)ccc3ncc21` [NVP-BEZ235] as the compound, how does the EC50 read?
The EC50 was less than 7 µM.

How did the EC50 turn out when `Nc1ncnc2c1c(-c1cccc(OCc3ccccc3)c1)cn2C1CC(CN2CCCC2)C1` (stereo in doubt) [NVP-ADW742] was run?
The EC50 was less than 7 µM.

With `O=c1cc(-c2cccc3c2Sc2ccccc2S3)oc(N2CCOCC2)c1` [KU-55933] as the compound, how does the EC50 read?
Its EC50 is less than 7 µM.

`CC(C)c1cnn2c(NCc3ccccc3)cc(NCCCCCCN)nc12` [BS181] was tested. Which EC50 did it give?
Its EC50 is less than 7 µM.

For `COc1cc2c(Oc3ccc(NC(=O)C4(C(=O)Nc5ccc(F)cc5)CC4)cc3F)ccnc2cc1OCCCN1CCOCC1` [XL880 (GSK1363089)], which EC50 is on record?
The EC50 was less than 7 µM.

With `N#CC(=C(/N)Sc1ccccc1N)/C(C#N)=C(\N)Sc1ccccc1N` [drawing 34] as the compound, how does the EC50 read?
Its EC50 is greater than 15 µM.

With `Cc1cc(C(C)Nc2ccccc2)c2nc(N3CCOCC3)cc(=O)n2c1` (centres unmarked) [TGX 221] as the compound, how does the EC50 read?
Its EC50 is less than 7 µM.

Which EC50 does the source give for `C=CC(=O)Nc1cc2c(Nc3ccc(F)c(Cl)c3)ncnc2cc1OCCCN1CCOCC1` [CI-1033] here?
Its EC50 is less than 7 µM.

With `Cc1ccc([N+](=O)[O-])cc1S(=O)(=O)N(C)/N=C/c1cnc2ccc(Br)cn12` [PIK75] as the compound, how does the EC50 read?
Its EC50 is less than 7 µM.

`CCC1=C[C@@H]2CN(C1)Cc1c([nH]c3ccccc13)[C@@](C(=O)OC)(c1cc3c(cc1OC)N(C)[C@H]1[C@@](O)(C(=O)OC)[C@H](OC(C)=O)[C@]4(CC)C=CCN5CC[C@]31[C@@H]54)C2` [Vinorelbine] was tested. Which EC50 did it give?
The EC50 was less than 7 µM.

With `C=CC(=O)Nc1cccc(Oc2nc(Nc3ccc(N4CCN(C)CC4)cc3OC)ncc2Cl)c1` [WZ4002] as the compound, how does the EC50 read?
The EC50 was 7 to 15 µM.

For `COc1cc2nccc(Oc3ccc(NC(=O)Nc4ccc(F)cc4F)c(F)c3)c2cc1OC` [Ki8751], which EC50 is on record?
The EC50 was less than 7 µM.

How did the EC50 turn out when `CC(C)(C)Cn1c(N)nc2ccc(-c3[nH]c(C(C)(C)C)nc3-c3ccc(F)cc3)nc21` [LY2228820] was run?
The EC50 was less than 7 µM.

For `CCOc1cc2ncc(C#N)c(Nc3ccc(OCc4ccccn4)c(Cl)c3)c2cc1NC(=O)/C=C/CN(C)C` [Neratinib], which EC50 is on record?
The EC50 was greater than 15 µM.

Which EC50 does the source give for `FC(F)c1nc2ccccc2n1-c1nc(N2CCOCC2)nc(N2CCOCC2)n1` [ZSTK474] here?
The EC50 was less than 7 µM.

Which EC50 does the source give for `Cc1cc(Nc2cc(N3CCN(C)CC3)nc(/C=C/c3ccccc3)n2)n[nH]1` [ENMD-2076] here?
Its EC50 is less than 7 µM.

How did the EC50 turn out when `CCN1CCN(Cc2ccc(-c3cc4c(N[C@H](C)c5ccccc5)ncnc4[nH]3)cc2)CC1` [AEE788] was run?
Its EC50 is less than 7 µM.

Which EC50 does the source give for `C[C@@H]1CN(CC(=O)Nc2ccc3c(c2)Cc2cccc(-c4cc(=O)cc(N5CCOCC5)o4)c2S3)C[C@H](C)O1` [KU-60019] here?
The EC50 was greater than 15 µM.

For `COC(=O)Nc1ccc(-c2nc(N3CCOCC3)c3cnn(C4CCN(C(=O)OC)CC4)c3n2)cc1` [WYE354], which EC50 is on record?
Its EC50 is 7 to 15 µM.

Which EC50 does the source give for `CO[C@H]1C[C@@H]2CC[C@@H](C)[C@@](O)(O2)C(=O)C(=O)N2CCCC[C@H]2C(=O)O[C@H]([C@H](C)C[C@@H]2CC[C@@H](OC(=O)C(C)(CO)CO)[C@H](OC)C2)CC(=O)[C@H](C)/C=C(\C)[C@@H](O)[C@@H](OC)C(=O)[C@H](C)C[C@H](C)/C=C/C=C/C=C/1C` [Temsirolimus] here?
Its EC50 is 7 to 15 µM.

For `CS(=O)(=O)CCNCc1ccc(-c2ccc3ncnc(Nc4ccc(OCc5cccc(F)c5)c(Cl)c4)c3c2)o1` [Lapatinib Ditosylate], which EC50 is on record?
Its EC50 is less than 7 µM.

For `C[C@@H](Oc1cc(-n2cnc3ccc(CN4CCN(C)CC4)cc32)sc1C(N)=O)c1ccccc1C(F)(F)F` [GSK461364], which EC50 is on record?
The EC50 was less than 7 µM.

`CO[C@H]1C[C@@H]2CC[C@@H](C)[C@@](O)(O2)C(=O)C(=O)N2CCCC[C@H]2C(=O)O[C@H]([C@H](C)C[C@@H]2CC[C@@H](OCCO)[C@H](OC)C2)CC(=O)[C@H](C)/C=C(\C)[C@@H](O)[C@@H](OC)C(=O)[C@H](C)C[C@H](C)/C=C/C=C/C=C/1C` [Everolimus (RAD001), Everolimus] was tested. Which EC50 did it give?
The EC50 was greater than 15 µM.

With `CCS(=O)(=O)Nc1ccc2c(c1)/C(=C(/Nc1ccc(CN3CCCCC3)cc1)c1ccccc1)C(=O)N2` [Hesperadin] as the compound, how does the EC50 read?
The EC50 was 7 to 15 µM.

`Cc1ccc(S(=O)(=O)Nc2nc3ccccc3nc2Nc2ccc3nsnc3c2)cc1` [XL147] was tested. Which EC50 did it give?
Its EC50 is less than 7 µM.

Which EC50 does the source give for `CO[C@H]1C[C@@H]2CC[C@@H](C)[C@@](O)(O2)C(=O)C(=O)N2CCCC[C@H]2C(=O)O[C@H]([C@H](C)C[C@@H]2CC[C@@H](OP(C)(C)=O)[C@H](OC)C2)CC(=O)[C@H](C)/C=C(\C)[C@@H](O)[C@@H](OC)C(=O)[C@H](C)C[C@H](C)/C=C/C=C/C=C/1C` [Deforolimus] here?
Its EC50 is 7 to 15 µM.

Which EC50 does the source give for `CCN1CCN(C(=O)Cc2ccc(Nc3ncc(F)c(Nc4ccc(C(=O)Nc5ccccc5Cl)cc4)n3)cc2)CC1` [Aurora A inhibitor 1] here?
The EC50 was less than 7 µM.

For `CN(C)c1ccc(-c2nc3c(N4CCN(CC(=O)Nc5nccs5)CC4)c(Cl)cnc3[nH]2)cc1` [CCT129202], which EC50 is on record?
The EC50 was less than 7 µM.

How did the EC50 turn out when `CC[C@@H]1C(=O)N(C)c2cnc(Nc3ccc(C(=O)NC4CCN(C)CC4)cc3OC)nc2N1C1CCCC1` [BI2536] was run?
The EC50 was less than 7 µM.

With `C[C@@H](Oc1cc(-c2cnn(C3CCNCC3)c2)cnc1N)c1c(Cl)ccc(F)c1Cl` [PF-02341066] as the compound, how does the EC50 read?
Its EC50 is less than 7 µM.

Which EC50 does the source give for `Nc1nc(Nc2ccc(S(N)(=O)=O)cc2)nn1C(=O)c1c(F)cccc1F` [JNJ-7706621] here?
The EC50 was 7 to 15 µM.

Which EC50 does the source give for `Nc1nccc(Oc2ccc(NC(=O)c3c[nH]cc(-c4ccc(F)cc4)c3=O)cc2F)c1Cl` [BMS 794833] here?
Its EC50 is 7 to 15 µM.

`Cn1cc(C2=C(c3cn(C4CCN(Cc5ccccn5)CC4)c4ccccc34)C(=O)NC2=O)c2ccccc21` [Enzastaurin] was tested. Which EC50 did it give?
The EC50 was less than 7 µM.

Which EC50 does the source give for `O=C1NC(=O)C(Cc2ccc3nccc(-c4ccncc4)c3c2)S1` (centres unmarked) [GSK1059615] here?
The EC50 was less than 7 µM.

Which EC50 does the source give for `COc1cc(N2CCC(N3CCN(C)CC3)CC2)ccc1Nc1ncc(Cl)c(Nc2ccccc2S(=O)(=O)C(C)C)n1` [NVP-TAE684] here?
Its EC50 is less than 7 µM.

Which EC50 does the source give for `CN(C)C/C=C/C(=O)Nc1cc2c(Nc3ccc(F)c(Cl)c3)ncnc2cc1O[C@H]1CCOC1` [BIBW2992 (Tovok)] here?
Its EC50 is less than 7 µM.

`Clc1ccc(C2(c3ccc(-c4cn[nH]c4)cc3)CCNCC2)cc1` [AT7867] was tested. Which EC50 did it give?
Its EC50 is less than 7 µM.

Which EC50 does the source give for `COc1cc2c(Oc3ccc4[nH]c(C)cc4c3F)ncnc2cc1OCCCN1CCCC1` [Cediranib (AZD2171), Cediranib] here?
Its EC50 is less than 7 µM.

Which EC50 does the source give for `Cc1nc(N)sc1-c1ccnc(Nc2ccc(N3CCOCC3)cc2)n1` [CYC116] here?
Its EC50 is less than 7 µM.
